Results taken from patent publication US10457654B2 (GENENTECH, INC., priority 2017, dated 2019).
pIC50: −log10 of the molar value. Counter-ions that a name gives are not always drawn.

Assays:
[1] = molecular target: T1, hNav1.7 (Homo sapiens (Human), UniProt Q15858); experiment: Tritiated compound binding to membranes from cells expressing hNav1.7 and the β1 subunit, competitive binding (LBA, Ex. 243A); settings: 100 pM [3H]compound, 18 h, room temperature; read-out: Nav1.7 LBA (Ex. 243A) IC50
Target sequence in this assay (Q15858 whole entry, looked up): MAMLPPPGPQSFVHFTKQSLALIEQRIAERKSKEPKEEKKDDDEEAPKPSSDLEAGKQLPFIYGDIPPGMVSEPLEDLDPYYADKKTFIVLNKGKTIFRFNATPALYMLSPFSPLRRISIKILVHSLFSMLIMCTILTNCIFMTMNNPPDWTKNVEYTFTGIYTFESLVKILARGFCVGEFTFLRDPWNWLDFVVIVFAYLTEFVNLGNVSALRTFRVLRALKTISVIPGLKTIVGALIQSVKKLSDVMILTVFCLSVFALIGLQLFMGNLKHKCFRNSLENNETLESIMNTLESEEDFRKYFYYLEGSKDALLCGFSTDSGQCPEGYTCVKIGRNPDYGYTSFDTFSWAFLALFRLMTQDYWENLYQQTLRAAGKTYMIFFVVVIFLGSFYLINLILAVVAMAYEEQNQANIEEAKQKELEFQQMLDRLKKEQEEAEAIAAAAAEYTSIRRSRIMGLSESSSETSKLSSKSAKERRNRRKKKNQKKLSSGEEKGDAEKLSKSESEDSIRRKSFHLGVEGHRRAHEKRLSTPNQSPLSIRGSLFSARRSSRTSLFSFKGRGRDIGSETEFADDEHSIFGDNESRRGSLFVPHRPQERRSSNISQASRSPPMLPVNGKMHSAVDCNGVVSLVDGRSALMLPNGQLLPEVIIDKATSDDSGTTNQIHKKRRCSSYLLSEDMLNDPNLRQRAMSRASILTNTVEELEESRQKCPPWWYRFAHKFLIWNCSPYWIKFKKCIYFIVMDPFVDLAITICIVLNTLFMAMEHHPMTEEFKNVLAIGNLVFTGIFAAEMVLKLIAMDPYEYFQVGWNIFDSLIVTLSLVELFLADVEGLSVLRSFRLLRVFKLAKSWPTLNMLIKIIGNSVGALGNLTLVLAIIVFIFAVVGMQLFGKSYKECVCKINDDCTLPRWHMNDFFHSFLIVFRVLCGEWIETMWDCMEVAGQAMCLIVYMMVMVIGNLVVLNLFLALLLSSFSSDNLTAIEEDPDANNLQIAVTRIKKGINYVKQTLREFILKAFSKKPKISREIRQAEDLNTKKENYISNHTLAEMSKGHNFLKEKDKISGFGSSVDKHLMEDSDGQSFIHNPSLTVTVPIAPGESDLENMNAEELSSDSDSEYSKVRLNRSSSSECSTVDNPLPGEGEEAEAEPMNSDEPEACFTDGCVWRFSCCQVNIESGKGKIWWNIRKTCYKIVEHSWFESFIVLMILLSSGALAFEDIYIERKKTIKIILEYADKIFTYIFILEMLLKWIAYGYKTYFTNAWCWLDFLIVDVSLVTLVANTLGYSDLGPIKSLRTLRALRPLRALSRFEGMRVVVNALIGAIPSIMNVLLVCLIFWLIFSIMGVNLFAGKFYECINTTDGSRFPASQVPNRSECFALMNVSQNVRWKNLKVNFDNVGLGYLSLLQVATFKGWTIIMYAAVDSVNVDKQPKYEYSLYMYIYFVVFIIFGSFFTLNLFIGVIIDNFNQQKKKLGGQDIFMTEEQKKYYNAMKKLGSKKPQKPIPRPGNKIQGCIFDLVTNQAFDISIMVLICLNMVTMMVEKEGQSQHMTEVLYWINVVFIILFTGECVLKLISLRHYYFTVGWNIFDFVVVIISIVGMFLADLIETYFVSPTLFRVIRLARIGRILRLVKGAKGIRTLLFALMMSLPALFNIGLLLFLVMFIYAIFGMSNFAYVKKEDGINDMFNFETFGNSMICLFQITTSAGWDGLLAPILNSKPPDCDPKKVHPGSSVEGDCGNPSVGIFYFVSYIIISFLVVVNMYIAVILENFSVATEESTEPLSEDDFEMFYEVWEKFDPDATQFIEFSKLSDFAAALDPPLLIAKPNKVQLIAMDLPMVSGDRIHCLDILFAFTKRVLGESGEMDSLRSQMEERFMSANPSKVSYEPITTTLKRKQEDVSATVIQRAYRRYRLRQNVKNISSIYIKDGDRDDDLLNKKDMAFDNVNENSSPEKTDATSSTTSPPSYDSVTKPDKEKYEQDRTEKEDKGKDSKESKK
Target sequence in this assay (Q07699 whole entry partner, looked up): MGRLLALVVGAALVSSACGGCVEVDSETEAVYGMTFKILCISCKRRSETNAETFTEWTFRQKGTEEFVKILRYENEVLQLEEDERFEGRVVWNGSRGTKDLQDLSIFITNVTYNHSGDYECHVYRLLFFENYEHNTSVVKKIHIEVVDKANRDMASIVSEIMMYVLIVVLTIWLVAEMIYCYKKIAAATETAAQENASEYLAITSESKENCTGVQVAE

[2] = molecular target: T1, hNav1.7; experiment: Patch voltage clamp electrophysiology assay (EP), Syncropatch 384PE, CHO cells expressing Nav1.7; type: cell-based; settings: holding potential -50 mV; […] compound incubation; read-out: EP_SP hNav1.7 (Ex. 243B) IC50
Method in brief: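 Automated whole-cell patch clamp on CHO cells stably expressing human Nav1.7, CsCl/EGTA internal and NMDG/80 mM Na+ external (pH 7.4). From −50 mV holding, −10 mV step, 20 ms recovery at −150 mV, then second −10 mV pulse where block is measured; inhibition after 7.5 min compound incubation.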
Target sequence in this assay (Q15858 other isoform, or with tags, fused parts or gaps): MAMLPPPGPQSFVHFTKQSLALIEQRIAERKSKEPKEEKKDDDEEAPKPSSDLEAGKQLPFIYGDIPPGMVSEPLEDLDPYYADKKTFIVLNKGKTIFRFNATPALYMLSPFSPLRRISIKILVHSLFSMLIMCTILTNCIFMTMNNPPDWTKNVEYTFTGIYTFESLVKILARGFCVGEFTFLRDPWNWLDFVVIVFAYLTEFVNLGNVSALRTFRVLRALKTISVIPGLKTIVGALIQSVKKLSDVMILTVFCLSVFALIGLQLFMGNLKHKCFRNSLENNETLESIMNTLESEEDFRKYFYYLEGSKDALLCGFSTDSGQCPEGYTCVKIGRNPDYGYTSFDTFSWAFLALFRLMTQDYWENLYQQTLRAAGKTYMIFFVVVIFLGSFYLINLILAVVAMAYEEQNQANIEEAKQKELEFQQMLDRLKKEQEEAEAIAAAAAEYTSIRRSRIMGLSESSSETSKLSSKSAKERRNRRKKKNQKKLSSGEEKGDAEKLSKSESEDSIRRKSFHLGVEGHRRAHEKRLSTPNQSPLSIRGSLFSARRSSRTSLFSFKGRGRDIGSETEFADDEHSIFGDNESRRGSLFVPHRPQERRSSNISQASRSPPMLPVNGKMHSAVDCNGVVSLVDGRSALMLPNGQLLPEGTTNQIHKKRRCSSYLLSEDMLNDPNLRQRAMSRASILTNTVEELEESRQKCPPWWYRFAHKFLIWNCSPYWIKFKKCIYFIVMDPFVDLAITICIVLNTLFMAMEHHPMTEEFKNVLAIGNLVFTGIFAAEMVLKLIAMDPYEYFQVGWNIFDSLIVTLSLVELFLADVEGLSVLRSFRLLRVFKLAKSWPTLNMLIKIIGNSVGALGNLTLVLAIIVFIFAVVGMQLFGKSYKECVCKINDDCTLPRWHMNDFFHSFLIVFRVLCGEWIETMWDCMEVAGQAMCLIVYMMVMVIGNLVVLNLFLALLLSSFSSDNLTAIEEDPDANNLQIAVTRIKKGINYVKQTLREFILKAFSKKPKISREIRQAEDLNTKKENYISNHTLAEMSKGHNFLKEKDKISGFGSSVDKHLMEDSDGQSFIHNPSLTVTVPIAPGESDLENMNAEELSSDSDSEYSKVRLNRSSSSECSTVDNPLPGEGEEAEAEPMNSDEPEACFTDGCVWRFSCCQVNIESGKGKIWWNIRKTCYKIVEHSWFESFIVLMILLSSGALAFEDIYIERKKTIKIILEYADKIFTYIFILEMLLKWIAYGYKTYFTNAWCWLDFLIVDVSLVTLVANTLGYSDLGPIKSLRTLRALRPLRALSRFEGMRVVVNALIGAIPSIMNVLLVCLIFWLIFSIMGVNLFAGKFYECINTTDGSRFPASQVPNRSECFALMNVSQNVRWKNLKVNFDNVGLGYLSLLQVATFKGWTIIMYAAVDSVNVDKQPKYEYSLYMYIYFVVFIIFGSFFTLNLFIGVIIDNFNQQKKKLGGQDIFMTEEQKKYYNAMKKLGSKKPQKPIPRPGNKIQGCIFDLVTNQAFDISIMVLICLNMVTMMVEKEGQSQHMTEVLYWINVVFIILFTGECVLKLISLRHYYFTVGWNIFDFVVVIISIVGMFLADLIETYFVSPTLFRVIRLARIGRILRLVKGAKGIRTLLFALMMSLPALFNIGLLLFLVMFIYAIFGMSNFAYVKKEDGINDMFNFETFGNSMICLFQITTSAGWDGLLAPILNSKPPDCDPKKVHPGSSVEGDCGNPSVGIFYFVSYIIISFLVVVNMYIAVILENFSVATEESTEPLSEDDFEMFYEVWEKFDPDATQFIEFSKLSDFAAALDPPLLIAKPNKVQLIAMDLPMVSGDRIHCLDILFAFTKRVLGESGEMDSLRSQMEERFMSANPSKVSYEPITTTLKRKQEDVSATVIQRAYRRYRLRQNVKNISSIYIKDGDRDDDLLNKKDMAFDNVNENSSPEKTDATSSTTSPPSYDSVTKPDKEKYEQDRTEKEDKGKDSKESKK

[3] = molecular target: T1, hNav1.7; experiment: Tritiated compound binding to membranes from cells expressing hNav1.7 and the β1 subunit, modified protocol (LBA, Ex. 243B); settings: 300 pM [3H]compound, room temperature, read-out: Nav1.7 LBA (Ex. 243B) IC50
Target sequence in this assay (Q15858 whole entry, looked up): as the sequence (Q15858 whole entry, looked up) above
Target sequence in this assay (Q07699 whole entry partner, looked up): as the sequence (Q07699 whole entry partner, looked up) above

SMILES	pIC50 [1]	pIC50 [2]	pIC50 [3]
CN(C1CNC1)[C@H]1CCCC[C@@H]1Oc1cc(F)c(S(=O)(=O)Nc2nccs2)cc1Cl [Example 66, 4-(((1S,2S)-2-(azetidin-3-yl(methyl)amino)cyclohexyl)oxy)-5-chloro-2-fluoro-N-(thiazol-2-yl)benzenesulfonamide formate]	8.68	8.54	8.11
CN(CCO)[C@H]1CCCC[C@@H]1Nc1cc(F)c(S(=O)(=O)Nc2nccs2)cc1Cl [Example 38, 5-chloro-2-fluoro-4-(((1S,2S)-2-((2-hydroxyethyl)(methyl)amino)cyclohexyl)amino)-N-(thiazol-2-yl)benzenesulfonamide formate]	8.30	8.51	7.46
CN(C1CNC1)[C@H]1CCCC[C@@H]1Nc1cc(F)c(S(=O)(=O)Nc2nccs2)cc1Cl [Example 39, 4-(((1S,2S)-2-(azetidin-3-yl(methyl)amino)cyclohexyl)amino)-5-chloro-2-fluoro-N-(thiazol-2-yl)benzenesulfonamide dihydrochloride]	8.73	8.85	7.89
CN(C)[C@H]1CCCC[C@@H]1Nc1cc(F)c(S(=O)(=O)Nc2cccc(F)n2)cc1Cl [Example 35, 5-chloro-4-(((1S,2S)-2-(dimethylamino)cyclohexyl)amino)-2-fluoro-N-(6-fluoropyridin-2-yl)benzenesulfonamide]	7.18	7.22	6.50
